From patent US8273775B2, “Non-steroidal brassinosteroid mimetic” (priority 2006, dated 2012)

Test system: gene expression in Col-0 seedling shoots
Assay: Microarray analysis (ATH1 Affymetrix) after BL or abrasin treatment
Assay type: in vivo, Arabidopsis
Protocol: FIG. 14: Clustering of gene expression profiles by QT-clust analysis. Clusters illustrating the major patterns of the data sets. Points: BIK-30: 30 μM abrasin 30 min; BL-30: 1 μM brassinolide 30 min; DMSO-30: control DMSO 30 min; BIK-120: 30 μM abrasin 120 min; BL-120: 1 μM brassinolide 120 min; DMSO-120: control DMSO 120 min.
Col-0 seeds were germinated vertically on ½ MS medium for 7 days under 16 h light/8 h dark cycles. The seedlings were overlaid with liquid ½ MS medium containing 1 μM brassinolide (BL, Fuji Chemical Industries, Ltd., Toyama, Japan), 30 μM abrasin (BIK, ChemBridge Corporation) and DMSO and treated for 30 and 120 min. The shoot parts were collected for RNA isolation. All sampling points were performed in three independent experiments. RNA was extracted using RNeasy kit (Qiagene). […] total RNA per array was used to hybridise the ATH1 Affymetrix Arabidopsis arrays according to standard procedure. The overrepresentation analyses were performed using BiNGO software (Maere et al., 2005).
We performed a microarray analysis using the Arabidopsis whole genome chip (Affymetix) to determine whether abrasin activated the expression of BR-inducible genes at transcriptional level. Wild-type Col-0 seedlings were exposed to 1 μM BL, 30 μM ABRASIN and DMSO (mock-treatment) for two time points (30 min and 120 min) and the shoot parts were collected for RNA isolation. The analysis of the variance of the normalized gene expression data took in account the variability parameters affecting the expression level: type of hormone treatment, duration of treatment and the interaction between these two.

O=C(O)CCC(=O)Nc1ccc(Br)cn1 [abrasin, 4-[(5-bromo-2-pyridinyl)amino]-4-oxobutanoic acid]
Fold-change of gene AT2G42380 (bZIP transcription factor family protein) (30 min, 265877_at, Cluster 6): 1.65 | Fold-change of gene AT2G45080 (cyclin family protein) (30 min, 266124_at, Cluster 8): 0.77 | Fold-change AT1G04330 expressed protein (120 min): 4.41 | Fold-change AT1G05470 endonuclease/exonuclease/phosphatase family protein (120 min): 2.59 | Fold-change AT1G06520 Encodes a membrane associated mitochondrial localized protein (120 min): 2.28 | Fold-change AT1G06570 4-hydroxyphenylpyruvate dioxygenase (HPD) (120 min): 0.29 | Fold-change AT1G10550 xyloglucan:xyloglucosyl transferase (120 min): 1.66 | Fold-change AT1G12710 F-box family protein (120 min): 1.41 | Fold-change AT1G12750 rhomboid family protein (120 min): 1.60 | Fold-change AT1G14130 2-oxoglutarate-dependent dioxygenase (120 min): 2.47 | Fold-change AT1G14700 purple acid phosphatase (120 min): 0.47 | Fold-change AT1G16640 transcriptional factor B3 family protein (120 min): 2.20 | Fold-change AT1G17230 leucine-rich repeat family protein (120 min): 0.22 | Fold-change AT1G18020; AT1G17990 [AT1G18020, 12-oxophytodienoate reductase, (120 min): 1.78 | Fold-change AT1G19320 pathogenesis-related thaumatin family protein (120 min): 0.50 | Fold-change AT1G20350 mitochondrial import inner membrane translocase subunit (120 min): 2.67 | Fold-change AT1G21050 expressed protein (120 min): 0.14 | Fold-change AT1G21760 F-box family protein (120 min): 0.46 | Fold-change AT1G22360 UDP-glucoronosyl/UDP-glucosyl transferase family protein (120 min): 0.32 | Fold-change AT1G23080 auxin efflux carrier protein (PIN7) (120 min): 0.33 | Fold-change AT1G26800 zinc finger (C3HC4-type RING finger) family protein, (120 min): 4.39 | Fold-change AT1G27730 zinc finger (C2H2 type) family protein (120 min): 1.06 | Fold-change AT1G28130 encodes an IAA-amido synthase (120 min): 0.40 | Fold-change AT1G28190 expressed protein (120 min): 1.65 | Fold-change AT1G28480 glutaredoxin family protein (120 min): 3.97 | Fold-change AT1G31040 zinc-binding protein-related (120 min): 4.37 | Fold-change AT1G31310 hydroxyproline-rich glycoprotein family protein (120 min): 2.45 | Fold-change AT1G31770 ABC transporter family protein (120 min): 0.50 | Fold-change AT1G32190 expressed protein (120 min): 0.07 | Fold-change AT1G32690 expressed protein (120 min): 0.26 | Fold-change AT1G36940 expressed protein (120 min): 0.32 | Fold-change AT1G49780 U-box domain-containing protein (120 min): 0.56 | Fold-change AT1G53870; AT1G53890 [AT1G53870, expressed protein (120 min): 0.51 | Fold-change AT1G54050 17.4 kDa class III heat shock protein (HSP17.4-CIII) (120 min): 2.86 | Fold-change AT1G54200 expressed protein (120 min): 2.19 | Fold-change AT1G55920 serine O-acetyltransferase (120 min): 2.16 | Fold-change AT1G57560 myb family transcription factor (MYB50) (120 min): 2.65 | Fold-change AT1G59590 expressed protein (120 min): 2.08 | Fold-change AT1G59660 nucleoporin family proteinmily (120 min): 2.94 | Fold-change AT1G62300 WRKY family transcription factor (120 min): 0.71 | Fold-change AT1G63050 membrane bound O-acyl transferase (MBOAT) family protein (120 min): 0.27 | Fold-change AT1G66160 U-box domain-containing protein, (120 min): 1.91 | Fold-change AT1G66890 expressed protein (120 min): 0.14 | Fold-change AT1G68330 expressed protein (120 min): 2.78 | Fold-change AT1G68810 basic helix-loop-helix (bHLH) family protein (120 min): 0.41 | Fold-change AT1G69160 expressed protein (120 min): 0.33 | Fold-change AT1G70990 proline-rich family protein (120 min): 3.50 | Fold-change AT1G71030 Encodes a putative myb family transcription factor (120 min): 0.46 | Fold-change AT1G72060 expressed protein (120 min): 5.97 | Fold-change AT1G72180 leucine-rich repeat transmembrane protein kinase (120 min): 0.11 | Fold-change AT1G72800 nuM1-related, contains (120 min): 2.15 | Fold-change AT1G75270 dehydroascorbate reductase (120 min): 2.62 | Fold-change AT1G75500 nodulin MtN21 family protein (120 min): 0.37 | Fold-change AT1G76240 expressed protein, (120 min): 0.07 | Fold-change AT1G76410 zinc finger (C3HC4-type RING finger) (120 min): 0.16 | Fold-change AT1G79110 expressed protein (120 min): 0.45 | Fold-change AT1G79630 protein phosphatase 2C family protein (120 min): 0.35 | Fold-change AT1G80440 kelch repeat-containing F-box family protein (120 min): 2.89 | Fold-change AT2G01300 expressed protein (120 min): 3.12 | Fold-change AT2G01990 expressed protein, (120 min): 2.56 | Fold-change AT2G04240 zinc finger (C3HC4-type RING finger) family protein (120 min): 1.72 | Fold-change AT2G05540 glycine-rich protein (120 min): 0.54 | Fold-change AT2G12290; AT4G19700 [AT2G12290, expressed protein]; [AT4G19700, expressed protein] (120 min): 0.53 | Fold-change AT2G18010 auxin-responsive family protein (SAUR10) (120 min): 3.94 | Fold-change AT2G19800 expressed protein (120 min): 2.22 | Fold-change AT2G22860 phytosulfokines 2 (PSK2) (120 min): 0.19 | Fold-change AT2G23180 cytochrome P450, putative (120 min): 0.36 | Fold-change AT2G23320 WRKY family transcription factor (120 min): 1.19
